Assay results as given in ChEMBL document CHEMBL3124778, “Structure-based design of new dihydrofolate reductase antibacterial agents: 7-(benzimidazol-1-yl)-2,4-diaminoquinazolines” (J Med Chem, 2014).
≈ marks a conversion by molar mass, not a printed value.

Tested on: not listed separately
Assay: Selectivity ratio of Ki for human DHFR to Ki for Staphylococcus aureus DHFR

Row | SMILES | Ratio Ki
1 | COc1cc2nc(-c3nccs3)n(-c3cc4nc(N)nc(N)c4cc3C)c2cc1OC | 8950
2 | COc1cc2nc(-c3nccs3)n(-c3cc4nc(N)nc(N)c4cc3Cl)c2cc1OC | 29000
3 | Cc1cc2nc(-c3ccccn3)n(-c3ccc4c(N)nc(N)nc4c3)c2cc1C | 26000
4 | Cc1cc2nc(-c3nccs3)n(-c3cc4nc(N)nc(N)c4cc3C)c2cc1C | 97

Tested on: Staphylococcus aureus
Assay: Antibacterial activity against TMP-resistant Staphylococcus aureus expressing DHFR F99Y mutant after 18 to 24 hrs by alamar Blue assay
Type: functional

Row | SMILES | MIC [µg/mL]
5 | COc1cc2nc(-c3nccs3)n(-c3cc4nc(N)nc(N)c4cc3C)c2cc1OC | 8 (≈ 18.5 µM)
6 | COc1cc2nc(-c3nccs3)n(-c3cc4nc(N)nc(N)c4cc3Cl)c2cc1OC | 2 (≈ 4.41 µM)
7 | Cc1cc2nc(-c3ccccn3)n(-c3ccc4c(N)nc(N)nc4c3)c2cc1C | 4 (≈ 10.5 µM)
8 | Cc1cc2nc(-c3nccs3)n(-c3cc4nc(N)nc(N)c4cc3C)c2cc1C | 0.125 (≈ 0.311 µM)
9 | Cc1cc2nc(C3CC3)n(-c3ccc4c(N)nc(N)nc4c3)c2cc1C | 8 (≈ 23.2 µM)
10 | Cc1cc2nc(-c3ccsc3)n(-c3ccc4c(N)nc(N)nc4c3)c2cc1C | 2 (≈ 5.17 µM)
11 | Cc1cc2nc(N3CCOCC3)n(-c3ccc4c(N)nc(N)nc4c3)c2cc1C | > 64

Tested on: Staphylococcus aureus
Assay: Antibacterial activity against Staphylococcus aureus ATCC 13709 after 18 to 24 hrs by alamar Blue assay in presence of 20% heat inactivated mouse serum
Type: functional

Row | SMILES | MIC [µg/mL]
12 | COc1cc2nc(-c3nccs3)n(-c3cc4nc(N)nc(N)c4cc3C)c2cc1OC | 0.5
13 | Cc1cc2nc(-c3nccs3)n(-c3cc4nc(N)nc(N)c4cc3C)c2cc1C | 0.06

Tested on: Staphylococcus aureus
Assay: Antibacterial activity against Staphylococcus aureus ATCC 13709 after 18 to 24 hrs by alamar Blue assay
Type: functional

Row | SMILES | MIC [µg/mL]
14 | COc1cc2nc(-c3nccs3)n(-c3cc4nc(N)nc(N)c4cc3C)c2cc1OC | 0.5 (≈ 1.15 µM)
15 | COc1cc2nc(-c3nccs3)n(-c3cc4nc(N)nc(N)c4cc3Cl)c2cc1OC | 0.125 (≈ 0.275 µM)
16 | Cc1cc2nc(-c3ccccn3)n(-c3ccc4c(N)nc(N)nc4c3)c2cc1C | 0.125 (≈ 0.328 µM)
17 | CN(Cc1cnc2nc(N)nc(N)c2n1)c1ccc(C(=O)N[C@@H](CCC(=O)O)C(=O)O)cc1 [METHOTREXATE] | > 64
18 | Cc1cc2nc(-c3nccs3)n(-c3cc4nc(N)nc(N)c4cc3C)c2cc1C | 0.03 (≈ 0.0747 µM)
19 | Cc1cc2nc(C3CC3)n(-c3ccc4c(N)nc(N)nc4c3)c2cc1C | 0.5 (≈ 1.45 µM)
20 | Cc1cc2nc(-c3ccsc3)n(-c3ccc4c(N)nc(N)nc4c3)c2cc1C | 0.03 (≈ 0.0776 µM)
